Earlier results, collected in patent publication US20060099249A1, “Modified release formulations of at least one form of tramadol” (priority 2002, published 2006).
Where two headings read alike, the source gives them in different places.

Legend:
osteoarthritis [1] = details: rofecoxib 12.5 mg
osteoarthritis [2] = details: 12 weeks, celecoxib 100 mg BID, Naproxen 500 mg BID
[3] = Study No. 033, Ibuprofen 2400 mg, over 6-weeks
[4] = Study No. 040, Ibuprofen 2400 mg, over 6-weeks
[5] = Study No. 058, Nabumetone 1500 mg, over 6-weeks

Compound	WOMAC pain walking on a flat surface, mean difference vs placebo (osteoarthritis [1]; [3]) [mm]	WOMAC pain walking on a flat surface, mean difference vs placebo (osteoarthritis [1]; [4]) [mm]	Arthritis Pain VAS change from baseline, LS mean difference vs placebo (osteoarthritis [2]; Study No. 020) [mm]	Arthritis Pain VAS change from baseline, LS mean difference vs placebo (osteoarthritis [2]; Study No. 054) [mm]	WOMAC pain walking on a flat surface, mean difference vs placebo (osteoarthritis [1]; Study No. 029, LS mean change from baseline over 6-weeks) [mm]	WOMAC pain walking on a flat surface, mean difference vs placebo (osteoarthritis [1]; [5]) [mm]
CC(C)Cc1ccc(C(C)C(=O)O)cc1 (stereo not drawn) [Ibuprofen]	13.5	14.6	–	–	–	–
COc1ccc2cc([C@H](C)C(=O)O)ccc2c1 [Naproxen]	–	–	7.6	11.2	–	–
CS(=O)(=O)c1ccc(C2=C(c3ccccc3)C(=O)OC2)cc1 [rofecoxib, Rofecoxib]	12.4	15.4	–	–	14.3	9.0
COc1ccc2cc(CCC(C)=O)ccc2c1 [Nabumetone]	–	–	–	–	–	10
